Experimental data: patent US12247033B2, “Triazole-substituted imidazo[1,2-a]pyrimidines as cGAS inhibitors” (GlaxoSmithKline Intellectual Property Development Limited, priority 2022, dated 2025)
Where a name gives a salt, the structure may show the parent alone.

system: CGAS; assay: CGAS whole blood cytokine release assay (384-well, BacMam stimulation, IP-10 by cytometric bead array); type: cell-based; settings: Homo sapiens, 6 h; read-out: hWB pXC50 (converted)
Method: Blood collection: Blood was collected in a tube containing 10% Sodium Heparin (5 ml/45 ml blood final).
Protocol for CGAS Whole Blood Cytokine Release Assay: Compounds serial diluted at 1:3 were provided at 150 nL per well, in a 384 well polypropylene microplate (cat. 781280; Greiner Bio-One, Frickenhausen, Germany). 5 μL of PBS/20% Null BacMam was dispensed to all wells except for column 18 on a Multidrop Combi (Thermo Scientific, Waltham, MA). 5 uL of PBS was dispensed into column 18. The Bravo (Agilent, Santa Clara, CA) was used to transfer 45 uL of donor derived blood into the compound plates. The Bravo protocol mixed the blood and compound/PBS 5 times. The plates were incubated at 37° C., 5% CO2, for 6 hours. At the 6 hour mark the plates were removed and centrifuged for 10 minutes at 3000 RPM. 3 uL of supernatant was transferred from the plate to a 384 well NBS microplate (cat. 4513; Corning Life Sciences, Corning, NY). These plates were sealed with adhesive foil and stored in a −80 freezer until ready for analysis.
For cytokine detection, Human IP-10 BD cytometric bead array (CBA) beads (BD Biosciences, Franklin Lakes, NJ) were used. Capture bead solution was prepared by performing a 1:50 dilution of the IP-10 capture bead stock solution in BD diluent for serum/plasma (cat. 51-9003991 BD Biosciences, Franklin Lakes, NJ). 2 μL of this solution was added per well to the assay microplates which were then sealed with adhesive foil and incubated at room temperature for 2 h in the dark. Detection reagent was further prepared by performing a 1:50 dilution of the detection reagent stock solution. 2 μL of detection reagent was added per well and microplates were sealed with adhesive foil and incubated at room temperature in the dark for 1 h. After the 1 h incubation 3 uL of BD CBA wash buffer was added per well of the microplates. Data were acquired on an iQue Screener flow cytometer. The iQue used fluorescence detection to quantify the inhibition of IP-10 present in the sample wells. A sip time of 1 second per sample was used. The blue laser with excitation of 488 nm and emission filters 585/40 nm were used to capture the mean and median of IP-10 with the detector in logarithmic mode (FL2-H).
All data analysis was carried out in IDBS ActivityBase XE.

SMILES | IC50
CCOCc1cn2c(-c3cnc[nH]3)c(-c3nc(C(F)(F)F)n[nH]3)nc2nc1C(F)(F)F [Example 115, 5-[6-(ethoxymethyl)-3-(1H-imidazol-5-yl)-7-(trifluoromethyl)imidazo[1,2-a]pyrimidin-2-yl]-3-(trifluoromethyl)-1H-1,2,4-triazole] | 1580 nM
FC(F)(F)c1cnc2nc(-c3nc(C(F)(F)F)n[nH]3)c(-c3cnc[nH]3)n2c1 [Example 64, 5-[3-(1H-imidazol-5-yl)-6-(trifluoromethyl)imidazo[1,2-a]pyrimidin-2-yl]-3-(trifluoromethyl)-1H-1,2,4-triazole] | 398 nM
FC(F)(F)COc1ccn2c(-c3cnc[nH]3)c(-c3nc(C(F)(F)F)n[nH]3)nc2n1 [Example 12, 5-[3-(1H-imidazol-5-yl)-7-(2,2,2-trifluoroethoxy)imidazo[1,2-a]pyrimidin-2-yl]-3-(trifluoromethyl)-1H-1,2,4-triazole] | 6310 nM
FC(F)(F)c1ccn2c(-c3cn[nH]c3)c(-c3nc(C(F)(F)F)n[nH]3)nc2n1 [Example 93, 5-[3-(1H-pyrazol-4-yl)-7-(trifluoromethyl)imidazo[1,2-a]pyrimidin-2-yl]-3-(trifluoromethyl)-1H-1,2,4-triazole] | 2510 nM
CNCCOC(=O)OCn1cnc(-c2c(-c3nc(C(F)(F)F)n[nH]3)nc3ncccn23)c1 [Example 26, 2-(methylamino)ethyl (4-{2-[3-(trifluoromethyl)-1H-1,2,4-triazol-5-yl]imidazo[1,2-a]pyrimidin-3-yl}-1H-imidazol-1-yl)methyl carbonate, 2 trifluoroacetic acid salt] | 39.8 nM
O=C(O)CCOC(=O)OCn1cnc(-c2c(-c3nc(C(F)(F)F)n[nH]3)nc3ncccn23)c1 [Example 32, 3-({[(4-{2-[3-(trifluoromethyl)-1H-1,2,4-triazol-5-yl]imidazo[1,2-a]pyrimidin-3-yl}-1H-imidazol-1-yl)methoxy]carbonyl}oxy)propanoic acid, 0.5 trifluoroacetic acid salt] | 3160 nM
CCN1Cc2cn3c(-c4cnc[nH]4)c(-c4nc(C(F)(F)F)n[nH]4)nc3nc2C(F)(F)C1 [Example 108, 11-ethyl-13,13-difluoro-6-(1H-imidazol-5-yl)-5-[3-(trifluoromethyl)-1H-1,2,4-triazol-5-yl]-2,4,7,11-tetraazatricyclo[7.4.0.0^3,^7]trideca-1,3,5,8-tetraene] | 631 nM
FC(F)(F)c1n[nH]c(-c2nc3ncc(COCCn4cc(Cl)cn4)cn3c2-c2c[nH]cn2)n1 [Example 151, 5-(6-{[2-(4-chloro-1H-pyrazol-1-yl)ethoxy]methyl}-3-(1H-imidazol-4-yl)imidazo[1,2-a]pyrimidin-2-yl)-3-(trifluoromethyl)-1H-1,2,4-triazole] | 3980 nM
O=C(COCc1cnc2nc(-c3nc(C(F)(F)F)n[nH]3)c(-c3c[nH]cn3)n2c1)N1CCCC1 [Example 147, 2-{[3-(1H-imidazol-4-yl)-2-[3-(trifluoromethyl)-1H-1,2,4-triazol-5-yl]imidazo[1,2-a]pyrimidin-6-yl]methoxy}-1-(pyrrolidin-1-yl)ethan-1-one] | 5010 nM

biological target: human CGAS (157-522) (Homo sapiens, UniProt Q8N884); assay: biochemical; settings: not given;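 also: biochemical enzyme reaction, 2′3′-cGAMP product measured by RapidFire mass spectrometry (MRM) normalised to c-di-UMP internal standard, inhibition of product formation relative to high and low control wells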
Sequence (Q8N884 157-522): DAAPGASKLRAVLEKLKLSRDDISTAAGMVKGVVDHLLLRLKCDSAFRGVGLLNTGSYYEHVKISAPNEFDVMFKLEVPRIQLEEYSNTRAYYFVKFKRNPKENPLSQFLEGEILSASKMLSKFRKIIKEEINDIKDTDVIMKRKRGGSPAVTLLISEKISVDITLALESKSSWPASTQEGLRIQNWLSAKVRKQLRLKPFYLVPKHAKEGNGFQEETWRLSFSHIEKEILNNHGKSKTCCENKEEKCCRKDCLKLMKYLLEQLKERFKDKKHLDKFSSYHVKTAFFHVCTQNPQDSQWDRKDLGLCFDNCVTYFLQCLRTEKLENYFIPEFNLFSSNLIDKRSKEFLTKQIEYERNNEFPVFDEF

SMILES | IC50
FC(F)(F)c1n[nH]c(-c2nc3ncc(CCN4CCOCC4)cn3c2-c2cnc[nH]2)n1 [Example 122, 4-{2-[3-(1H-imidazol-5-yl)-2-[3-(trifluoromethyl)-1H-1,2,4-triazol-5-yl]imidazo[1,2-a]pyrimidin-6-yl]ethyl}morpholine] | 5.01 nM
Cn1cc(-c2c(-c3nc(C(F)(F)F)n[nH]3)nc3ncccn23)cn1 [Example 131, 5-[3-(1-methyl-1H-pyrazol-4-yl)imidazo[1,2-a]pyrimidin-2-yl]-3-(trifluoromethyl)-1H-1,2,4-triazole] | 15800 nM
FC(F)(F)c1n[nH]c(-c2nc3ncc(COc4cccnc4)cn3c2-c2cnc[nH]2)n1 [Example 119, 3-{[3-(1H-imidazol-5-yl)-2-[3-(trifluoromethyl)-1H-1,2,4-triazol-5-yl]imidazo[1,2-a]pyrimidin-6-yl]methoxy}pyridine] | 158 nM
Oc1cnc2nc(-c3nc(C(F)(F)F)n[nH]3)c(-c3cnc[nH]3)n2c1 [Example 60, 3-(1H-imidazol-5-yl)-2-[3-(trifluoromethyl)-1H-1,2,4-triazol-5-yl]imidazo[1,2-a]pyrimidin-6-ol] | 0.794 nM
COc1nc2nc(-c3nc(C(F)(F)F)n[nH]3)c(-c3cnc[nH]3)n2cc1C [Example 59, 5-[3-(1H-imidazol-5-yl)-7-methoxy-6-methylimidazo[1,2-a]pyrimidin-2-yl]-3-(trifluoromethyl)-1H-1,2,4-triazole] | 12.6 nM
FC(F)(F)c1ccn2c(-c3cnc[nH]3)c(-c3ncn[nH]3)nc2n1 [Example 97, 5-[3-(1H-imidazol-5-yl)-7-(trifluoromethyl)imidazo[1,2-a]pyrimidin-2-yl]-1H-1,2,4-triazole] | 7940 nM
CC(C)Oc1ccn2c(-c3c[nH]cn3)c(-c3nc(Br)n[nH]3)nc2n1 [Example 40, 3-bromo-5-[3-(1H-imidazol-4-yl)-7-(propan-2-yloxy)imidazo[1,2-a]pyrimidin-2-yl]-1H-1,2,4-triazole] | 25.1 nM
FC(F)(F)c1n[nH]c(-c2nc3nc4c(cn3c2-c2cnc[nH]2)CCO4)n1 [Example 48, 12-(1H-imidazol-5-yl)-11-[3-(trifluoromethyl)-1H-1,2,4-triazol-5-yl]-6-oxa-1,8,10-triazatricyclo[7.3.0.0^3,^7]dodeca-2,7,9,11-tetraene] | 2 nM
Brc1n[nH]c(-c2nc3ncccn3c2-c2c[nH]cn2)n1 [Example 37, 3-bromo-5-[3-(1H-imidazol-4-yl)imidazo[1,2-a]pyrimidin-2-yl]-1H-1,2,4-triazole, trifluoroacetic acid salt] | 3.16 nM
CN1CCC(Oc2ccn3c(-c4c[nH]cn4)c(-c4nc(C(F)(F)F)n[nH]4)nc3n2)CC1 [Example 132, 4-{[3-(1H-imidazol-4-yl)-2-[3-(trifluoromethyl)-1H-1,2,4-triazol-5-yl]imidazo[1,2-a]pyrimidin-7-yl]oxy}-1-methylpiperidine] | 39.8 nM
COC(=O)c1ccn2c(-c3cn[nH]c3)c(-c3nc(Br)n[nH]3)nc2n1 [Example 35, methyl 2-(3-bromo-1H-1,2,4-triazol-5-yl)-3-(1H-pyrazol-4-yl)imidazo[1,2-a]pyrimidine-7-carboxylate] | 3.16 nM
FC(F)(F)c1n[nH]c(-c2nc3ncc(Cl)cn3c2-c2cnc[nH]2)n1 [Example 45, 5-[6-chloro-3-(1H-imidazol-5-yl)imidazo[1,2-a]pyrimidin-2-yl]-3-(trifluoromethyl)-1H-1,2,4-triazole] | 3.16 nM
CS(=O)(=O)Oc1cnc2nc(-c3nc(C(F)(F)F)n[nH]3)c(-c3cnc[nH]3)n2c1 [Example 20, 3-(1H-Imidazol-5-yl)-2-(3-(trifluoromethyl)-1H-1,2,4-triazol-5-yl)imidazo[1,2-a]pyrimidin-6-yl methanesulfonate] | 2 nM
FC(F)(F)c1n[nH]c(-c2nc3ncccn3c2-c2cn[nH]c2)n1 [Example 11, 5-[3-(1H-pyrazol-4-yl)imidazo[1,2-a]pyrimidin-2-yl]-3-(trifluoromethyl)-1H-1,2,4-triazole, trifluoroacetic acid salt] | 10 nM
[O-][S+]1CCc2nc3nc(-c4nc(C(F)(F)F)n[nH]4)c(-c4cnc[nH]4)n3cc2C1 (stereo not drawn) [Example 116, 6-(1H-imidazol-5-yl)-5-[3-(trifluoromethyl)-1H-1,2,4-triazol-5-yl]-11λ^4-thia-2,4,7-triazatricyclo[7.4.0.0^3,^7]trideca-1,3,5,8-tetraen-11-one] | 5.01 nM
O=C(O)Cc1cnc2nc(-c3nc(C(F)(F)F)n[nH]3)c(-c3cnc[nH]3)n2c1 [Example 92, 2-[3-(1H-imidazol-5-yl)-2-[3-(trifluoromethyl)-1H-1,2,4-triazol-5-yl]imidazo[1,2-a]pyrimidin-6-yl]acetic acid] | 10 nM
COc1cc(OC)n2c(-c3c[nH]cn3)c(-c3nc(C(F)(F)F)n[nH]3)nc2n1 [Example 49, 5-[3-(1H-imidazol-4-yl)-5,7-dimethoxyimidazo[1,2-a]pyrimidin-2-yl]-3-(trifluoromethyl)-1H-1,2,4-triazole] | 12.6 nM
CN1Cc2cn3c(-c4cnc[nH]4)c(-c4nc(C(F)(F)F)n[nH]4)nc3nc2C(F)(F)C1 [Example 18, 13,13-difluoro-6-(1H-imidazol-5-yl)-11-methyl-5-[3-(trifluoromethyl)-1H-1,2,4-triazol-5-yl]-2,4,7,11-tetraazatricyclo[7.4.0.0^3,7]trideca-1,3,5,8-tetraene, trifluoroacetic acid salt] | 12.6 nM
